biological target: T1, full-length MALT1 protein His-MALT1(1-824) (Homo sapiens, UniProt Q9UDY8); experiment: MALT1 protease assay (Ac-LRSR-AMC tetrapeptide substrate, fluorescence); type: biochemical; conditions: 1 nM MALT1, 25 μM Ac-LRSR-AMC, 2 h pre-incubation, 8 hr incubation at RT
T1 construct: full-length MALT1 protein His-MALT1(1-824); His (N); made in house; host or cells: baculovirus-infected insect cells
T1 sequence (Q9UDY8 1-824): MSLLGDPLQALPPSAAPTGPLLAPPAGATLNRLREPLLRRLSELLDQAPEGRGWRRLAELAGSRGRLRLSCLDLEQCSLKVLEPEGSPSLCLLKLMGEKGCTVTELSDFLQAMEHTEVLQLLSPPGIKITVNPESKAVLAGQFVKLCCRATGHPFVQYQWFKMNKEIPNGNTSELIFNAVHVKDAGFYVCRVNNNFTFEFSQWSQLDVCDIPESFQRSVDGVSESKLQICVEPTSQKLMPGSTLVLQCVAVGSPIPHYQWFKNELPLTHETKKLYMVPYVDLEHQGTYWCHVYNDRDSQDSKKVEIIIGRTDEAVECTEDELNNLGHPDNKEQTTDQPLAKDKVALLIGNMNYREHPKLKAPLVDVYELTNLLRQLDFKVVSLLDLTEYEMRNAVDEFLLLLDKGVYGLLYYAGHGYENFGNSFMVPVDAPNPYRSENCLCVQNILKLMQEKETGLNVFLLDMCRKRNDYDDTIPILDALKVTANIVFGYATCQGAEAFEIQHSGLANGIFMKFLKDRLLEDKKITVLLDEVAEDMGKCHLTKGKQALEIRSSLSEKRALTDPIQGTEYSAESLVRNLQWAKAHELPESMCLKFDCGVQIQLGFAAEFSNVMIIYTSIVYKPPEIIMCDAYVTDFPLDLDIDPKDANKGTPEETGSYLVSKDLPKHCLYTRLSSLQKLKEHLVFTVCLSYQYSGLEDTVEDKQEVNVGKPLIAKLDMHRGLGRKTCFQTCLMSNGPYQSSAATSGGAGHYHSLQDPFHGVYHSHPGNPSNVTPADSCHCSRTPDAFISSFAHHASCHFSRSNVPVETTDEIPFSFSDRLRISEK
Summary of the method: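 Full-length His-MALT1(1-824) from baculovirus-infected insect cells (1 nM) was pre-incubated 2 h at RT with compounds (0.1% DMSO), then 25 μM Ac-LRSR-AMC added in 50 mM Tris pH 7.5, 600 mM sodium citrate, 1 mM DTT, 1 mM EDTA, 0.05% BSA. Fluorescence (ex 355/em 460 nm) read after 8 h at RT; IC50 by non-linear regression of % remaining activity.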

SMILES | IC50 [nM]
CC1(c2ccn(C(F)F)n2)CC(C(=O)Nc2cnc(-c3cccnn3)c(C(F)(F)F)c2)c2cnc3cc(F)nn3c21 (single isomer, unassigned) [Example 163] | ≥ 1000
CC1(n2ccc([C@]3(C)C[C@H](C(=O)Nc4cnc(-c5ncccn5)c(C(F)(F)F)c4)c4cnc5cc(F)nn5c43)n2)CC1 (single isomer, unassigned) [Example 160] | 100 to 1000
C[C@]1(c2ccn(C(F)F)n2)C[C@@H](C(=O)Nc2cnc(OC(F)F)c(C#N)c2)c2cnc3cc(F)nn3c21 (single isomer, unassigned) [Example 113] | 100 to 1000
C[C@@]1(c2cnn(C3CC3)c2)C[C@@H](C(=O)Nc2cnc(-n3nccn3)c(Cl)c2)c2cnc3cc(F)nn3c21 (single isomer, unassigned) [Example 29] | ≥ 1000
C[C@]1(c2cnn(C(F)F)c2)CC(C(=O)Nc2cnc(-n3nccn3)c(C(F)(F)F)c2)c2cnc3cc(F)nn3c21 (single isomer, unassigned) [Example 83] | 100 to 1000
Cn1ccc([C@]2(C)C[C@H](C(=O)Nc3cnc(-n4nccn4)c(C(F)(F)F)c3)c3cnc4cc(F)nn4c32)n1 (single isomer, unassigned) [Example 146] | 100 to 1000
Cn1ccc([C@@]2(C)C[C@@H](C(=O)Nc3cnc(OC(F)F)c(C#N)c3)c3cnc4cc(F)nn4c32)n1 (single isomer, unassigned) [Example 71] | ≥ 1000
C[C@@]1(c2ccn(C(F)F)n2)C[C@H](C(=O)Nc2ccc(-c3ncccn3)c(Cl)c2)c2cnc3cc(F)nn3c21 (single isomer, unassigned) [Example 191] | ≥ 1000
CC1(n2ccc([C@@]3(C)C[C@@H](C(=O)Nc4cnc(-c5ncccn5)c(C(F)(F)F)c4)c4cnc5cc(F)nn5c43)n2)CC1 (single isomer, unassigned) [Example 161] | ≥ 1000
Cc1cc(NC(=O)[C@H]2C[C@@](C)(c3cnn(C)c3)c3c2cnc2cc(F)nn32)cnc1-n1nccn1 (single isomer, unassigned) [Example 58] | ≥ 1000
C[C@@]1(c2ccn(C(F)F)n2)C[C@@H](C(=O)Nc2ccc(-c3ncccn3)c(Cl)c2)c2cnc3cc(F)nn3c21 (single isomer, unassigned) [Example 190] | ≥ 1000
C[C@@]1(c2cnn(C(F)F)c2)C[C@@H](C(=O)Nc2cnc(-c3ncncc3F)c(C(F)(F)F)c2)c2cnc3cc(F)nn3c21 (single isomer, unassigned) [Example 119] | ≥ 1000
Cn1ccc([C@]2(C)C[C@H](C(=O)Nc3cnc(-n4nccn4)c(Cl)c3)c3cnc4cc(F)nn4c32)n1 (single isomer, unassigned) [Example 34] | 100 to 1000
C[C@@]1(c2ccn(C(F)F)n2)C[C@@H](C(=O)Nc2cnc(-c3ncccn3)c(Cl)c2)c2cnc3cc(F)nn3c21 (single isomer, unassigned) [Example 141] | ≥ 1000
Cn1ccc([C@]2(C)C[C@@H](C(=O)Nc3cnc(-n4nccn4)c(Cl)c3)c3cnc4cc(Cl)nn4c32)n1 (single isomer, unassigned) [Example 77] | ≥ 1000
CC(F)(F)n1cc([C@@]2(C)C[C@@H](C(=O)Nc3cnc(-n4nccn4)c(Cl)c3)c3cnc4cc(F)nn4c32)cn1 (single isomer, unassigned) [Example 123] | 100 to 1000
C[C@]1(c2cnn(C(F)F)c2)C[C@@H](C(=O)Nc2cnc(-c3ncccn3)c(C(F)(F)F)c2)c2cnc3cc(F)nn3c21 (single isomer, unassigned) [Example 151] | 100 to 1000
Cn1ccc([C@]2(C)C[C@H](C(=O)Nc3cnc(-n4nccn4)c(Cl)c3)c3cnc4cc(Cl)nn4c32)n1 (single isomer, unassigned) [Example 78] | 100 to 1000

Second part, the compound after the results:

IC50 [nM] | SMILES
< 10 | Cn1cc([C@@]2(C)C[C@H](C(=O)Nc3cnc(-n4nccn4)c(Cl)c3)c3cnc4cc(F)nn4c32)cn1 (single isomer, unassigned) [Example 1]
< 10 | Cn1ccc([C@@]2(C)C[C@H](C(=O)Nc3cnc(-n4nccn4)c(C(F)(F)F)c3)c3cnc4cc(F)nn4c32)n1 (single isomer, unassigned) [Example 144]
100 to 1000 | Cn1cc([C@@]2(C)C[C@@H](C(=O)Nc3cnc(OC(F)F)c(C#N)c3)c3cnc4cc(F)nn4c32)cn1 (single isomer, unassigned) [Example 43]
10 to 100 | C[C@]1(c2cnn(C(F)F)c2)C[C@H](C(=O)Nc2cnc(-c3ncc(F)cn3)c(Cl)c2)c2cnc3cc(F)nn3c21 [Example 134, (6S,8R)—N-(5-chloro-6-(5-fluoropyrimidin-2-yl)pyridin-3-yl)-8-(1-(difluoromethyl)-1H-pyrazol-4-yl)-2-fluoro-8-methyl-7,8-dihydro-6H-cyclopenta[e]pyrazolo[1,5-a]pyrimidine-6-carboxamide]
100 to 1000 | CC1(n2cc([C@@]3(C)C[C@@H](C(=O)Nc4cnc(-n5nccn5)c(Cl)c4)c4cnc5cc(F)nn5c43)cn2)CC1 (single isomer, unassigned) [Example 109]
100 to 1000 | CC(F)(F)n1ccc([C@@]2(C)C[C@@H](C(=O)Nc3cnc(-c4ncccn4)c(C(F)(F)F)c3)c3cnc4cc(F)nn4c32)n1 (single isomer, unassigned) [Example 167, (cis)-8-(1-(1,1-difluoroethyl)-1H-pyrazol-3-yl)-2-fluoro-8-methyl-N-(6-(pyrimidin-2-yl)-5-(trifluoromethyl)pyridin-3-yl)-7,8-dihydro-6H-cyclopenta[e]pyrazolo[1,5-a]pyrimidine-6-carboxamide]
10 to 100 | C[C@]1(c2cnn(C(F)F)c2)C[C@H](C(=O)Nc2cnc(-c3ncncc3F)c(C(F)(F)F)c2)c2cnc3cc(F)nn3c21 (single isomer, unassigned) [Example 118]
10 to 100 | CC1(c2cnn(C(F)F)c2)CC(C(=O)Nc2cnc(N=S3(=O)CCC3)c(Cl)c2)c2cnc3cc(F)nn3c21 (single isomer, unassigned) [Example 96]
< 10 | Cn1ccc([C@@]2(C)C[C@H](C(=O)Nc3cnc(-n4nccn4)c(Cl)c3)c3cnc4cc(Cl)nn4c32)n1 (single isomer, unassigned) [Example 76]
< 10 | C[C@]1(c2cnn(CC(F)(F)F)c2)C[C@H](C(=O)Nc2cnc(-n3nccn3)c(Cl)c2)c2cnc3cc(F)nn3c21 (single isomer, unassigned) [Example 84]
100 to 1000 | Cn1cc([C@@]2(C)C[C@@H](C(=O)Nc3cnc(OC(F)(F)F)c(C#N)c3)c3cnc4cc(F)nn4c32)cn1 (single isomer, unassigned) [Example 55]
10 to 100 | CC1(c2ccn(C(F)F)n2)CC(C(=O)Nc2cnc(-c3ncccn3)c(C(F)F)c2)c2cnc3cc(F)nn3c21 (single isomer, unassigned) [Example 193]
10 to 100 | CC1(n2ccc([C@@]3(C)C[C@H](C(=O)Nc4cnc(-c5ncccn5)c(C(F)(F)F)c4)c4cnc5cc(F)nn5c43)n2)CC1 (single isomer, unassigned) [Example 158]
10 to 100 | C[C@@]1(c2ccn(C(F)F)n2)C[C@H](C(=O)Nc2cnc(-n3nccn3)c(C(F)(F)F)c2)c2cnc3cc(F)nn3c21 (single isomer, unassigned) [Example 126]
10 to 100 | C[C@@]1(c2ccn(C(F)F)n2)C[C@H](C(=O)Nc2cnc(-c3ncccn3)c(C(F)(F)F)c2)c2cnc3cc(Cl)nn3c21 (single isomer, unassigned) [Example 173]

test system: IL10 secretion, OCI-LY10 cells; experiment: Human IL10 secretion assay in OCI-LY10 cells (MSD); type: cell-based; conditions: 24 h incubation, relative to DMSO set as 100%, read-out: IL-10 Secretion IC50
Experimental: IL10 is one of the cytokines that are regulated via activation of NF-kB signaling. For example, in ABC-DLBCL cell lines, the activated NF-kB signaling leads to increased IL10 secretion. Inhibition of NF-kB signaling has been shown leading to decreased IL10 secretion.
OCI-LY10 cells were seeded in IMEM supplemented with 20% fetal bovine serum at 4.8×10^5 cells per 160 μL per well in 96-well V-bottom cell culture plates (coming, 3894), treated with 120 nL of 3-fold serial compound dilutions, starting at 4 mM. The final vehicle concentration was 0.075% DMSO in all wells. After a 24 h incubation, human IL-10 pre-coated plates (Meso Scale Discovery) were washed 3 times with PBST, and 50 μL culture medium was aspirated into the MSD plate and incubated at 4° C. overnight. The supernatant was then discarded, and the wells were washed 3 times with PBST. SULFO-TAG Anti-human IL-10 Antibody (50×) was diluted 50-fold according to the Meso Scale Protocol, then 25 μL of SULFO-TAG Anti-human IL-10 Antibody (1×) was added. After 2 h of incubation at RT, the supernatant was discarded, and the well was washed 3 times with PBST. 2× read buffer was added and the signal was read on an MSD Sector S600. The effect of a particular compound on IL10 secretion is shown relative to the effect of DMSO; set as 100%. IC50 values (nM) were determined using 4-parametric curve-fitting.

IC50 [nM] | SMILES
100 to 1000 | Cn1cc([C@@]2(C)C[C@H](C(=O)Nc3cnc(-n4nccn4)c(Cl)c3)c3cnc4cc(F)nn4c32)cn1 (single isomer, unassigned) [Example 1]
100 to 1000 | Cn1ccc([C@@]2(C)C[C@H](C(=O)Nc3cnc(-n4nccn4)c(C(F)(F)F)c3)c3cnc4cc(F)nn4c32)n1 (single isomer, unassigned) [Example 144]
